These are literature values, as cited in PMC10033663, “Acute pharmacological profile of 2C-B-Fly-NBOMe in male Wistar rats—pharmacokinetics, effects on behaviour and thermoregulation” (Frontiers in Pharmacology, 2023).

The structures appear in SMILES notation. Read-outs that look alike come from different tables or passages of the source.

On the set-up of data set [1]: method as in ref Adams and Geyer, 1982; Páleníček et al., 2013; Páleníček et al., 2008. The settings on record: ref Adams and Geyer, 1982, Páleníček et al., 2013, 2008; cited from earlier work.
For data set [2] the following is noted: 50 mg/kg s. c., ref Rohanová et al., 2008, cited from earlier work.
For data set [3] the following is noted: rat blood serum; 1 mg/kg, peroral administration; ref Baralla et al. (2019); cited from earlier work.
Details of data set [4]: method as in Gatch et al., 2017; Wojtas et al., 2021. To be noted: administered i. p.; ref Gatch et al., 2017; Wojtas et al., 2021; cited from earlier work.
Data set [5] deals with rats. Details: method as in Nakamura et al., 2018. To be noted: 0.25 intraperitoneally (i. p.), ambient temperature 29°C, ref Nakamura et al., 2018; cited from earlier work.
Data set [6] concerns rats. Also on record: method as in Halberstadt and Geyer, 2017. To be noted: ref Halberstadt and Geyer, 2017; cited from earlier work.
Details of data set [7]: method as in ref Šíchová et al., 2022. The settings on record: ref Šíchová et al., 2022; cited from earlier work.
Details of data set [8]: method as in ref Šíchová et al., 2022. The settings on record: compared with 2C-B-Fly-NBOMe; ref Šíchová et al., 2022; cited from earlier work.
Details of data set [9]: method as in ref Šíchová et al., 2022. To be noted: 5 mg/kg, ref Šíchová et al., 2022, cited from earlier work.
On the set-up of data set [10]: method as in ref Šíchová et al., 2022. To be noted: 5 mg/kg; individually-housed animals; ref Šíchová et al., 2022; cited from earlier work.
For data set [11], the system named is rats. To be noted: 0.5 mg/kg i. p.; female and male rats; ref Miliano et al. (2019); cited from earlier work.
The subject of data set [12] is mice. Also on record: method as in Halberstadt, 2017. The settings on record: ref Halberstadt, 2017, cited from earlier work; for locomotion: mice.
For data set [13], the system named is rats. Details: method as in Miliano et al. (2019). The settings on record: ref Miliano et al. (2019), cited from earlier work.

As for `COc1cc(CCN)c(OC)cc1Br` [2C-B, 4-Bromo-2,5-dimethoxyphenethylamine], the “biphasic effect (low and high doses, temporal onsets)” value in data set [1] is “biphasic effect”. Moreover, the “time for which presence was detectable” value in data set [2] (all collected tissues) was “up to 5 h”. The “time of peak concentration” value is listed as no more than 30 min in data set [2] (blood serum); no more than 60 min in data set [2] (brain, liver, and lung tissue).

Turning to `NCCc1c2c(cc3c1OCC3)OCC2` [2C-FLY, 2-(2,3,6,7-tetrahydrofuro [2,3-f][1]benzofuran-4-yl)ethanamine], in [3], the “time of peak concentration” value is 60 min.

In the case of `COc1cc(CCNCc2ccccc2OC)c(OC)cc1Br` [25B-NBOMe], the locomotor activity result in data set [4] is “dose-dependent decrease in locomotor activity”. For the same molecule, the body temperature result in data set [5] was “hyperthermia, but only in higher ambient temperature”.

As for `COc1cc(CCNCc2ccccc2OC)c(OC)cc1Cl` [25C-NBOMe], the locomotor activity entry in [4] is recorded as “dose-dependent decrease in locomotor activity”.

Consider `COc1cc(CCNCc2ccccc2O)c(OC)cc1C#N` [25CN-NBOH], for which the PPI result in data set [6] is “tendencies to disrupt PPI”.

Turning to `COc1cc(CCNCc2ccccc2OC)c(OC)cc1C#N` [25CN-NBOMe], the PPI result in [7] is “affected PPI only in the highest dose of 5 mg/kg in the 15 min onset”. Moreover, the locomotion result in data set [8] is “similar, yet less pronounced decrease in locomotion”. For the same molecule, the half-life (in general, how long it takes for the measured level to halve) in data set [9] (blood serum) was 1.88 h; in [9] (brain tissue), 2.28 h. Further, in data set [10], the body temperature result is reported as “significant hypothermic effect”.

With `COc1cc(CCNCc2ccccc2OC)c(OC)cc1I` [25I-NBOMe, 2-(4-iodo-2,5-dimethoxyphenyl)-N-[(2-methoxyphenyl)methyl]ethanamine], the body temperature entry in [11] was “induced hyperthermia within 35–65 min in female rats, but not in males”. In addition, in [4], the locomotor activity result is recorded as “dose-dependent decrease in locomotor activity”. Besides, the locomotion result in [12] (0.1 mg/kg s. c., 60 min temporal onset) is listed as “significant hyperlocomotion”; in data set [12] (3 mg/kg s. c.) it was “hypolocomotion”. For the same molecule, the “biphasic effect on locomotion by route” value in data set [12] (s. c. versus i. p.) was “induced a biphasic effect after s. c. application, but interestingly not after i. p. injection”. Moreover, the ASR result in [13] (highest dose (1 mg/kg i. p.)) is given as “significant decrease of ASR”. Besides, the PPI entry in data set [13] is listed as “dose-dependent inhibition of PPI”.

Consider `CC(N)Cc1c2c(cc3c1OCC3)OCC2` (stereo not drawn) [FLY, 1-(2,3,6,7-tetra-hydrofuro [2,3-f][1]benzofuran-4-yl)propan-2-amine], for which the “time of peak concentration” value in data set [3] was 30 min.

As to `CCN(CC)C(=O)[C@@H]1C=C2c3cccc4[nH]cc(c34)C[C@H]2N(C)C1` [LSD, lysergic acid diethylamide], in data set [1], the “biphasic effect (low and high doses, temporal onsets)” value was “biphasic effect”.

Turning to `COc1cc(CCN)cc(OC)c1OC` [mescaline], the “biphasic effect (low and high doses, temporal onsets)” value in data set [1] is recorded as “biphasic effect”.
